What all share (format): in vivo
One experiment deals with Erysiphe polygoni. In words: Bean Powdery Mildew control (Example A). The following applies: 240 h, seedling bean plants, inoculated 1 day after spray, 10 days, relative to untreated check plants, read-out: % Control BPM. The method, then: The compounds of the invention were tested for the control of the Bean Powdery Mildew organism Erysiphe polygoni. Seedling bean plants were sprayed with a 250-ppm solution of the test compound in acetone, water and a nonionic emusifier. The sprayed plants were then inoculated 1 day later with the organism. The plants were maintained for 10 days at temperatures of 68° F. at night with daytime temperatures of 72° F. to 80° F.; relative humidity was maintained at 40% to 60%. The percent disease control provided by a given test compound was based on the percent disease reduction relative to the untreated check plants.

Experiment [1] relates to Alternaria solani conidia. The experiment in a line: Tomato Early Blight control (Example D). The following applies: 288 h, tomato seedlings, Bonny Best, inoculated 1 day after spray, relative to untreated check plants, read-out: % Control TEB. The method, then: Compounds of the invention were tested for the control of the Tomato Early Blight organism Alternaria solani conidia. Tomato (variety Bonny Best) seedlings of 6- to 7-weeks old were used. The tomato plants were sprayed with a 250-ppm solution of the test compound in an acetone-and-water solution containing a small amount of a nonionic emulsifier. The sprayed plants were inoculated 1 day later with the organism, placed in the environmental chamber and incubated at 66° F. to 68° F. and 100% relative humidity for 24 hours. Following the incubation, the plants were maintained in a greenhouse for about 12 days. Percent disease control was based on the percent disease development on untreated check plants.

For the next experiment, the system named is Plasmopara viticola. In words: Grape Downy Mildew control (Example E). The note with it: detached grape leaves, cultivar Emperor, relative to untreated check plants, read-out: % Control GDM. The method, then: The compounds of the invention were tested for the control of the Grape Downy Mildew organism Plasmopara viticola. Detached leaves, between 70 mm and 85 mm in diameter, 7-week-old Vitis vinifera cultivar Emperor grape seedlings were used as hosts. The leaves were sprayed with a 250-ppm solution of the test compound in acetone. The sprayed leaves were dried, inoculated with a spore suspension of the organism, placed in a humid environmental chamber and incubated at 66° F. to 68° F. and about 100% relative humidity. After incubation for 2 days, the plants were then held in a greenhouse 7 to 9 days; then the amount of disease control was determined. The percent disease control provided by a given test compound was based on the percent disease reduction relative to untreated check plants.

In another experiment the test system is Phytophthora infestans. In words: whole plant or invertebrate. The note with it: in Solanum lycopersicum, 168 h, read-out: % Control TLB.
The subject of a further experiment is Piricularia oryzae. The experiment in a line: whole plant or invertebrate. The note with it: Pyricularia oryzae, read-out: % Control RB.
Another experiment relates to Septoria apii. The experiment in a line: whole plant or invertebrate. The following applies: 336 h, read-out: % Control CLB.
The test system of a further experiment is Uromyces phaseoli tipica. The experiment in a line: Leaf Rust / Bean Rust control (Example F). The following applies: 336 h, pinto bean plants, rated after about 14 days, relative to untreated check plants, read-out: % Control BR. The method, then:
The Leaf Rust test was made using pinto beans. The pathogen was Uromyces phaseoli tipica. The pinto bean plants were sprayed with a 250-ppm solution of the test compound in an acetone-water mixture containing a nonionic emulsifier. The treated plants were inoculated thereafter with the pathogen and then incubated in an environmental chamber for approximately 20 hours at 100% relative humidity and a temperature of 68° F. to 70° F. The plants were then removed from the chamber, allowed to dry, and then maintained in a greenhouse at a 60% to 80% relative humidity. The rate of infection on the leaves was made after about 14 days. The percent disease control provided by a given test compound was based on the percent disease reduction relative to untreated check plants.

SMILES strings stand for the structures.

Take `CCCN(CCOc1c(C)cc(C)cc1C)C(=O)c1cnccn1` [Compound 15]: the pest or weed control at 250 ppm in the experiment with Erysiphe polygoni is 44%; in experiment [1], 67%; in the experiment on Plasmopara viticola, 0%; in the experiment with Phytophthora infestans, 0%; with Septoria apii, 15%; in the experiment with Uromyces phaseoli tipica, 0%. Moreover, in the experiment on Piricularia oryzae, the pest or weed control at 625 ppm was 29%.
In the case of `CCCN(CCOc1c(C)cc(C)cc1C)C(=O)c1cncnc1` [Compound 16], the pest or weed control at 250 ppm with Erysiphe polygoni came out at 50%; in experiment [1] it was 83%; in the experiment on Plasmopara viticola it was 7%; in the experiment with Phytophthora infestans, 0%; in the experiment on Septoria apii, 38%; with Uromyces phaseoli tipica, 0%. For the same compound, the pest or weed control at 625 ppm in the experiment on Piricularia oryzae amounted to 36%.
With `CCCN(CCOc1c(Cl)cc(Cl)cc1Cl)C(=S)c1cccnc1` [Compound 17, N-(n-propyl), N-(3-pyridylthiocarbonyl)ethanolamine 2,4,6-trichlorophenylether], the pest or weed control at 250 ppm with Erysiphe polygoni worked out at 100%; in experiment [1], 87%; with Plasmopara viticola it was 4%; in the experiment with Phytophthora infestans, 0%; in the experiment on Septoria apii it was 62%; in the experiment with Uromyces phaseoli tipica, 0%. Moreover, the pest or weed control at 625 ppm with Piricularia oryzae came to 100%.
Turning to `CCCN(CCCOc1c(Cl)cc(Cl)cc1Cl)C(=O)c1cccnc1` [Compound 19], the pest or weed control at 250 ppm in the experiment with Erysiphe polygoni was 70%; in experiment [1], 0%; with Plasmopara viticola, 30%; in the experiment with Phytophthora infestans, 10%; in the experiment on Septoria apii, 38%; with Uromyces phaseoli tipica, 0%. For the same compound, in the experiment on Piricularia oryzae, the pest or weed control at 625 ppm amounted to 96%.
Take `CCCN(CCCc1c(Cl)cccc1Cl)C(=O)c1cccnc1` [Compound 22, N-[3-(2,6-dichlorophenyl)propyl], N-(n-propyl)nicotine amide]: the pest or weed control at 250 ppm with Erysiphe polygoni worked out at 44%; in experiment [1], 88%; in the experiment on Plasmopara viticola it was 7%; with Phytophthora infestans it was 0%; in the experiment with Septoria apii, 38%; in the experiment on Uromyces phaseoli tipica, 0%. Besides, the pest or weed control at 625 ppm in the experiment on Piricularia oryzae was 0%.
Turning to `CCCN(CC(C)Cc1ccc(C(C)(C)C)cc1)C(=O)c1cccnc1` (stereo not drawn) [Compound 23], the pest or weed control at 250 ppm is 100% with Erysiphe polygoni; 33% in experiment [1]; 0% in the experiment on Plasmopara viticola; 7% in the experiment on Phytophthora infestans; 29% in the experiment with Septoria apii; 0% in the experiment with Uromyces phaseoli tipica. The pest or weed control at 625 ppm with Piricularia oryzae amounted to 0%.
In the case of `CCCN(CC(C)Cc1ccc(C(C)(C)C)cc1)C(=O)c1cnccn1` (stereo not drawn) [Compound 24], the pest or weed control at 250 ppm in the experiment on Erysiphe polygoni came to 72%; in experiment [1] it was 8%; in the experiment with Plasmopara viticola, 7%; in the experiment on Phytophthora infestans, 4%; in the experiment on Septoria apii, 17%; in the experiment with Uromyces phaseoli tipica, 0%. The pest or weed control at 625 ppm in the experiment on Piricularia oryzae was found to be 0%.
As to `CCCN(CCCc1c(Cl)cccc1Cl)C(=O)c1cnccn1` [Compound 25], the pest or weed control at 250 ppm in the experiment with Erysiphe polygoni came to 28%; in experiment [1], 29%; with Plasmopara viticola, 0%; with Phytophthora infestans, 0%; in the experiment on Septoria apii, 8%; with Uromyces phaseoli tipica, 0%. The pest or weed control at 625 ppm in the experiment with Piricularia oryzae is 0%.
For `CCCN(CCCc1ccc(Cl)cc1Cl)C(=O)c1cnccn1` [Compound 26], the pest or weed control at 250 ppm worked out at 11% in the experiment on Erysiphe polygoni; 0% in experiment [1]; 13% in the experiment with Plasmopara viticola; 4% with Phytophthora infestans; 10% in the experiment with Septoria apii; 3% in the experiment on Uromyces phaseoli tipica. Further, in the experiment with Piricularia oryzae, the pest or weed control at 625 ppm was determined as 21%.
Consider `CCCN(CCCc1ccc(Cl)cc1Cl)C(=O)c1cccnc1` [Compound 27], for which the pest or weed control at 250 ppm with Erysiphe polygoni was determined as 82%; in experiment [1], 57%; with Plasmopara viticola it was 0%; with Phytophthora infestans, 0%; in the experiment with Septoria apii, 35%; in the experiment on Uromyces phaseoli tipica, 3%. Also, the pest or weed control at 625 ppm in the experiment with Piricularia oryzae is 71%.
Take `CCCN(Cc1c(Cl)cccc1Cl)C(=O)c1cnccn1` [Compound 28]: the pest or weed control at 250 ppm with Erysiphe polygoni was found to be 92%; in experiment [1], 27%; with Plasmopara viticola, 3%; with Phytophthora infestans, 4%; with Septoria apii, 30%; in the experiment on Uromyces phaseoli tipica, 7%. Also, the pest or weed control at 625 ppm with Piricularia oryzae was found to be 0%.
`O=C(c1cccnc1)N(CCO)CCOc1c(Cl)cc(Cl)cc1Cl` [Compound 30]: the pest or weed control at 250 ppm in the experiment on Erysiphe polygoni is 33%; in experiment [1], 17%; with Plasmopara viticola, 54%; in the experiment on Phytophthora infestans, 7%; in the experiment on Septoria apii, 32%; in the experiment with Uromyces phaseoli tipica, 0%. For the same compound, the pest or weed control at 625 ppm in the experiment on Piricularia oryzae came out at 0%.
On to `O=C(c1cnccn1)N(CCO)CCOc1c(Cl)cc(Cl)cc1Cl` [Compound 31], for which the pest or weed control at 250 ppm with Erysiphe polygoni stood at 0%; in experiment [1], 42%; with Plasmopara viticola, 29%; with Phytophthora infestans it was 0%; in the experiment on Septoria apii, 0%; with Uromyces phaseoli tipica it was 0%. Further, in the experiment with Piricularia oryzae, the pest or weed control at 625 ppm came out at 0%.
Take `C=CCN(CCOc1c(Cl)cc(Cl)cc1Cl)C(=O)c1cccnc1` [Compound 32, N-allyl, N-(3-pyridylcarbonyl)ethanolamine 2,4,6-trichlorophenylether]: the pest or weed control at 250 ppm turned out to be 4% with Erysiphe polygoni; 0% in experiment [1]; 41% in the experiment on Plasmopara viticola; 0% in the experiment on Phytophthora infestans; 0% in the experiment on Septoria apii; 0% with Uromyces phaseoli tipica. Also, the pest or weed control at 625 ppm with Piricularia oryzae is 0%.
Take `CCOCCN(CCOc1c(Cl)cc(Cl)cc1Cl)C(=O)c1cccnc1` [Compound 33]: the pest or weed control at 250 ppm stood at 88% in the experiment on Erysiphe polygoni; 52% in experiment [1]; 18% in the experiment with Plasmopara viticola; 0% in the experiment with Phytophthora infestans; 54% in the experiment with Septoria apii; 0% in the experiment on Uromyces phaseoli tipica. Further, in the experiment with Piricularia oryzae, the pest or weed control at 625 ppm came to 0%.
In the case of `CCOCCN(CCOc1c(Cl)cc(Cl)cc1Cl)C(=O)c1cnccn1` [Compound 34], the pest or weed control at 250 ppm in the experiment on Erysiphe polygoni stood at 0%; in experiment [1], 0%; in the experiment on Plasmopara viticola, 7%; in the experiment with Phytophthora infestans, 0%; in the experiment on Septoria apii, 15%; in the experiment with Uromyces phaseoli tipica it was 0%. Further, the pest or weed control at 625 ppm with Piricularia oryzae was determined as 38%.
As to `CCN(CCOc1c(Cl)cc(Cl)cc1Cl)C(=O)c1cccnc1` [Compound 35], the pest or weed control at 250 ppm in the experiment with Erysiphe polygoni was 100%; in experiment [1] it was 30%; in the experiment on Plasmopara viticola it was 41%; in the experiment on Phytophthora infestans, 0%; with Septoria apii, 98%; in the experiment on Uromyces phaseoli tipica, 0%. Moreover, the pest or weed control at 625 ppm in the experiment on Piricularia oryzae was found to be 96%.
With `CCN(CCOc1c(Cl)cc(Cl)cc1Cl)C(=O)c1cnccn1` [Compound 36], the pest or weed control at 250 ppm came out at 75% in the experiment on Erysiphe polygoni; 0% in experiment [1]; 45% in the experiment with Plasmopara viticola; 0% in the experiment on Phytophthora infestans; 50% with Septoria apii; 0% in the experiment on Uromyces phaseoli tipica. In addition, in the experiment on Piricularia oryzae, the pest or weed control at 625 ppm is 0%.
